From US9302988B2, “Fluoromethyl-substituted pyrrole carboxamides” (GRÜNENTHAL GMBH, priority 2012, dated 2016)

These compounds were tested against T1, Human CaV2.2 channels (Homo sapiens, UniProt Q00975) (assay: Fluorescent assay for CaV2.2 channels using potassium depolarization to induce channel opening (FLIPR, Fluo-4)). Conditions: 3 μM test compound, 30 mM KCl, HEK293 cells stably expressing human CaV2.2; read-out: %-Inhib (CaV2.2) @3 μM @30 mM KCl.
T1 construct: expressed in transfected cells
T1 sequence (Q00975 whole entry): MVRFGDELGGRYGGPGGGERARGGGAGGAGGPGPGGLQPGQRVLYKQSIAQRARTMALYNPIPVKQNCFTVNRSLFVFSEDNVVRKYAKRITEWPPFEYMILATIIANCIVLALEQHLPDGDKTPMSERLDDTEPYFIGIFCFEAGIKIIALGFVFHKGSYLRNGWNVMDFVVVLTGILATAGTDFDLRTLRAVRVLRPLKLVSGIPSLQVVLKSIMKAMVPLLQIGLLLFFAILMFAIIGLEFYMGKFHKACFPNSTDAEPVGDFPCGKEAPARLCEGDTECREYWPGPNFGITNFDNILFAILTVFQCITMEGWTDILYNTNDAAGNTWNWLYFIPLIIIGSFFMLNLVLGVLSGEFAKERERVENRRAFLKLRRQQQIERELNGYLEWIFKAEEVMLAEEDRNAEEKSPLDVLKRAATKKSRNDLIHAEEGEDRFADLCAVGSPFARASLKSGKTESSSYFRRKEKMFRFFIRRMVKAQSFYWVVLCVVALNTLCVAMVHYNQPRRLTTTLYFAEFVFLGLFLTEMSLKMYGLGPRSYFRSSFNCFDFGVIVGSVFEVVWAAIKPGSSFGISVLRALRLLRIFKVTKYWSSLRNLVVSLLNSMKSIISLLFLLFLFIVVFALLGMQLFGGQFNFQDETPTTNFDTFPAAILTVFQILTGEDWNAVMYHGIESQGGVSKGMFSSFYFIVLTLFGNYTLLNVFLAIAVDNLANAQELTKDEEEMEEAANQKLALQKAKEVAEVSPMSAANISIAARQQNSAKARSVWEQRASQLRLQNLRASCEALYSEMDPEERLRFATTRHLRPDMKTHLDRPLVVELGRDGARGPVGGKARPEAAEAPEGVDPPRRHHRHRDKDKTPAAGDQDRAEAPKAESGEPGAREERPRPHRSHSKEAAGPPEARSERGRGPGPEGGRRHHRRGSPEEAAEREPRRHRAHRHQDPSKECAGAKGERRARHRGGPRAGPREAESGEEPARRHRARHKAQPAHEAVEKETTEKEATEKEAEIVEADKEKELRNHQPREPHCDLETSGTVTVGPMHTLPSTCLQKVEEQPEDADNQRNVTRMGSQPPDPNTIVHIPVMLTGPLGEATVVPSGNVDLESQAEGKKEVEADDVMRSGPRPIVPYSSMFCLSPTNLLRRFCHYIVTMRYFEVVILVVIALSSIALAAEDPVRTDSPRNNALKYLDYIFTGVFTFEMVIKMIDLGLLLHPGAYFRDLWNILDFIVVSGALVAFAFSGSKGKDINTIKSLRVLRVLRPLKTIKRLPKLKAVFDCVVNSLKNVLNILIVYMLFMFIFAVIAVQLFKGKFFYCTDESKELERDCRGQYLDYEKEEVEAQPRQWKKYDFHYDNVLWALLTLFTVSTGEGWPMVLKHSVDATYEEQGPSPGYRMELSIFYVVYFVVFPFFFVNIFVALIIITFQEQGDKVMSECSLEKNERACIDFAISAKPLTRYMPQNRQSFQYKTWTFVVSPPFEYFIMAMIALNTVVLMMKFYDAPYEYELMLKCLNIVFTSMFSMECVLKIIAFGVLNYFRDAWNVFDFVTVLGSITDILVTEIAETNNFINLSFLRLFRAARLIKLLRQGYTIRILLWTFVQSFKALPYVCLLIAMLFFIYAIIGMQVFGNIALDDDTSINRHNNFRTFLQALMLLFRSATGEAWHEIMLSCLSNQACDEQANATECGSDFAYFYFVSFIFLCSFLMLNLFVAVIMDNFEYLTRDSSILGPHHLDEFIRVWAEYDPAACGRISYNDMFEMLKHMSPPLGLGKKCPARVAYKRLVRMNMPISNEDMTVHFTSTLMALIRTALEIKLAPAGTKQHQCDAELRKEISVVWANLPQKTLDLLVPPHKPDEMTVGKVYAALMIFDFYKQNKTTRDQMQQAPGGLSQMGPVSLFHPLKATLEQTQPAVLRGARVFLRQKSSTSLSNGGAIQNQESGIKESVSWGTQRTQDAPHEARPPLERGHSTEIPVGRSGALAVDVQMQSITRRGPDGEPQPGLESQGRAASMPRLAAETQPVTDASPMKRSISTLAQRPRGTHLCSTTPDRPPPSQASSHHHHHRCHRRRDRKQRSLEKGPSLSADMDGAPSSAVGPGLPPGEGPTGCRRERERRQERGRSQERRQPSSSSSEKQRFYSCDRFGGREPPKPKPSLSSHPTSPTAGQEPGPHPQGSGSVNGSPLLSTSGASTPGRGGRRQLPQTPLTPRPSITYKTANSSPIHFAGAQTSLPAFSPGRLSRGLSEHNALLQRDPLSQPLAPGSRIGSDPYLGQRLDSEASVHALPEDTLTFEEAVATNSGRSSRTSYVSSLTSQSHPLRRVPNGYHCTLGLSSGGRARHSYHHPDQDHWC
T1 sequence (P54289 25-1103, further chain): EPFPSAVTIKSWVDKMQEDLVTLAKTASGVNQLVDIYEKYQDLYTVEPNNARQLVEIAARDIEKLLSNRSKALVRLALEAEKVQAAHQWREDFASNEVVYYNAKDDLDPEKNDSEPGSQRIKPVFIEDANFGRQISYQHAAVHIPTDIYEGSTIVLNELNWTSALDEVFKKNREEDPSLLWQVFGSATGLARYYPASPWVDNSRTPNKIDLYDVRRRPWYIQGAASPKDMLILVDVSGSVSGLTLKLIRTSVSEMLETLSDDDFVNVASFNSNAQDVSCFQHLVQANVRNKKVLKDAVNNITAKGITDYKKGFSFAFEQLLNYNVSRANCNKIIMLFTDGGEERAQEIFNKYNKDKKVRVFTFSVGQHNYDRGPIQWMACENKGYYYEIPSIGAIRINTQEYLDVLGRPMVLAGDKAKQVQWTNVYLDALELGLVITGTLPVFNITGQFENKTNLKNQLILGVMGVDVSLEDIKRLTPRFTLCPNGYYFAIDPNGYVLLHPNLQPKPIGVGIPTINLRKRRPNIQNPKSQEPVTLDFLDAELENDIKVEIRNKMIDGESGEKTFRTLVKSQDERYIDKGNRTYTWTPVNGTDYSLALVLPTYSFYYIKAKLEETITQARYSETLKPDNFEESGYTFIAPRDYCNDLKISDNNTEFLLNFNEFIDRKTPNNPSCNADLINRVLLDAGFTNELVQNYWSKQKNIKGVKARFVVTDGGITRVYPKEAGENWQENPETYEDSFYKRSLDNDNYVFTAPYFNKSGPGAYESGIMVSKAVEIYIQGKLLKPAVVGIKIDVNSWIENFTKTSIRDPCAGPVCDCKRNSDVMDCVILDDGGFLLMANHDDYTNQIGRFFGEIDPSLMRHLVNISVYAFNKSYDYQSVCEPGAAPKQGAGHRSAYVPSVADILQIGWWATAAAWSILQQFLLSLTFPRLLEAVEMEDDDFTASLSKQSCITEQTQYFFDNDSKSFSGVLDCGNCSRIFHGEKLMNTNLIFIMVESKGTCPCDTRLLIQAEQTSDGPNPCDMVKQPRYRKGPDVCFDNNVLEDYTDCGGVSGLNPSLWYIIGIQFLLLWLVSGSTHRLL
T1 sequence (P54284 whole entry, further chain): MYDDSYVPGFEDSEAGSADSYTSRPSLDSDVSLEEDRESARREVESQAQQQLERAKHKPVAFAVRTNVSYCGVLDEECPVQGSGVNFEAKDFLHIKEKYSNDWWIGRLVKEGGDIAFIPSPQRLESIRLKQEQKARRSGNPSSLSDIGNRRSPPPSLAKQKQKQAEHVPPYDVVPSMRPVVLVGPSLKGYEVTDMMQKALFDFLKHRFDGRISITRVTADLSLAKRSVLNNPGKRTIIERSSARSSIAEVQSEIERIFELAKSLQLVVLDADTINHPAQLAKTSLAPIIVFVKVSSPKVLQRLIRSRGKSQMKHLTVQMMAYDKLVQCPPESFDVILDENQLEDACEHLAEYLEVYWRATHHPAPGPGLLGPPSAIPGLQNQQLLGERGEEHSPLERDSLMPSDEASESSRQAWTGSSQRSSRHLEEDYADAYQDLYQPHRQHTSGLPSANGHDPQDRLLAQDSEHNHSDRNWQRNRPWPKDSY
Type: cell-based
How it was run: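 Channel block was read as the baseline-normalized peak Ca²⁺ signal (Fluo-4, 480/535 nm) after a high-KCl depolarizing addition (210 mM KCl buffer). Beforehand, compound sat 15 min at 25 °C on HEK293 cells carrying human CaV2.2, α2δ/β subunits and Kir2.3, in pH 7.4 buffer with 30 mM KCl.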
Cc1nnc(CN(C)C(=O)c2c(-c3ccc(Cl)cc3)c(C)c(C(F)(F)F)n2Cc2ccccc2)o1 [SC-143, 1-Benzyl-3-(4-chlorophenyl)-N,4-dimethyl-N-[(5-methyl-[1,3,4]oxadiazol-2-yl)-methyl]-5-(trifluoromethyl)-1H-pyrrole-2-carboxylic acid amide] was tested, and the inhibition at 3 µM was greater than 95%. In the case of Cc1c(-c2ccc(Cl)cc2)c(C(=O)N(C)Cc2ccncn2)n(Cc2ccccc2)c1C(F)(F)F [SC-144, 1-Benzyl-3-(4-chlorophenyl)-N,4-dimethyl-N-(pyrimidin-4-yl-methyl)-5-(trifluoromethyl)-1H-pyrrole-2-carboxylic acid amide], the inhibition at 3 µM is reported as greater than 95%. COC1CCN(C(=O)c2c(-c3ccc(Cl)cc3)c(C)c(C(F)(F)F)n2Cc2ccccc2)CC1 [SC-145, [1-Benzyl-3-(4-chlorophenyl)-4-methyl-5-(trifluoromethyl)-1H-pyrrol-2-yl]-(4-methoxy-piperidin-1-yl)-methanone] showed an inhibition at 3 µM greater than 95%. Cc1c(-c2ccc(Cl)cc2)c(C(=O)N(C)Cc2cnccn2)n(Cc2ccccc2)c1C(F)(F)F [SC-146, 1-Benzyl-3-(4-chlorophenyl)-N,4-dimethyl-N-(pyrazin-2-yl-methyl)-5-(trifluoromethyl)-1H-pyrrole-2-carboxylic acid amide] was tested, and the inhibition at 3 µM was 75 to 95%. Work on Cc1c(-c2ccc(Cl)cc2)c(C(=O)N(C)Cc2ccnc(N(C)C)n2)n(Cc2ccccc2)c1C(F)(F)F [SC-147, 1-Benzyl-3-(4-chlorophenyl)-N-[(2-dimethylamino-pyrimidin-4-yl)-methyl]-N,4-dimethyl-5-(trifluoromethyl)-1H-pyrrole-2-carboxylic acid amide] yielded an inhibition at 3 µM of 75 to 95%. In the case of Cc1c(-c2ccc(Cl)cc2)c(C(=O)N(C)Cc2nccn2C)n(Cc2ccccc2)c1C(F)(F)F [SC-148, 1-Benzyl-3-(4-chlorophenyl)-N,4-dimethyl-N-[(1-methyl-1H-imidazol-2-yl)-methyl]-5-(trifluoromethyl)-1H-pyrrole-2-carboxylic acid amide], the inhibition at 3 µM is reported as greater than 95%. In the case of Cc1c(-c2ccc(Cl)cc2)c(C(=O)N(C)C(C)C)n(Cc2ccccc2)c1C(F)(F)F [SC-149, 1-Benzyl-3-(4-chlorophenyl)-N-isopropyl-N,4-dimethyl-5-(trifluoromethyl)-1H-pyrrole-2-carboxylic acid amide], the inhibition at 3 µM is reported as greater than 95%. Compound Cc1c(-c2ccc(Cl)cc2)c(C(=O)NC(C)C)n(Cc2ccccc2)c1C(F)(F)F [SC-150, 1-Benzyl-3-(4-chlorophenyl)-N-isopropyl-4-methyl-5-(trifluoromethyl)-1H-pyrrole-2-carboxylic acid amide] has an inhibition at 3 µM of 75 to 95%. Cc1cnc(CN(C)C(=O)c2c(-c3ccc(Cl)cc3)c(C)c(C(F)(F)F)n2Cc2ccccc2)cn1 [SC-151, 1-Benzyl-3-(4-chlorophenyl)-N,4-dimethyl-N-[(5-methyl-pyrazin-2-yl)-methyl]-5-(trifluoromethyl)-1H-pyrrole-2-carboxylic acid amide] gave an inhibition at 3 µM greater than 95%. Work on Cc1c(-c2ccc(Cl)cc2)c(C(=O)N(C)Cc2cnc(N(C)C)nc2)n(Cc2ccccc2)c1C(F)(F)F [SC-152, 1-Benzyl-3-(4-chlorophenyl)-N-[(2-dimethylamino-pyrimidin-5-yl)-methyl]-N,4-dimethyl-5-(trifluoromethyl)-1H-pyrrole-2-carboxylic acid amide] yielded an inhibition at 3 µM greater than 95%. For Cc1c(-c2ccc(Cl)cc2F)c(C(=O)N2CC(O)C2)n(Cc2ccccc2)c1C(F)(F)F [SC-154, [1-Benzyl-3-(4-chloro-2-fluoro-phenyl)-4-methyl-5-(trifluoromethyl)-1H-pyrrol-2-yl]-(3-hydroxy-azetidin-1-yl)-methanone], the inhibition at 3 µM was 75 to 95%. Work on Cc1c(-c2ccc(Cl)cc2F)c(C(=O)N2CCOC(C)(C)C2)n(Cc2ccccc2)c1C(F)(F)F [SC-155, [1-Benzyl-3-(4-chloro-2-fluoro-phenyl)-4-methyl-5-(trifluoromethyl)-1H-pyrrol-2-yl]-(2,2-dimethyl-morpholin-4-yl)-methanone] yielded an inhibition at 3 µM greater than 95%. Cc1c(-c2ccc(Cl)cc2F)c(C(=O)N(C)C2CCOCC2)n(Cc2ccccc2)c1C(F)(F)F [SC-156, 1-Benzyl-3-(4-chloro-2-fluoro-phenyl)-N,4-dimethyl-N-tetrahydro-pyran-4-yl-5-(trifluoromethyl)-1H-pyrrole-2-carboxylic acid amide] showed an inhibition at 3 µM greater than 95%. Cc1c(-c2ccc(Cl)cc2F)c(C(=O)N[C@H](C)C(C)(C)C)n(Cc2ccccc2)c1C(F)(F)F [SC-158, 1-Benzyl-3-(4-chloro-2-fluoro-phenyl)-4-methyl-5-(trifluoromethyl)-N-[(1R)-1,2,2-trimethyl-propyl]-1H-pyrrole-2-carboxylic acid amide] showed an inhibition at 3 µM of 75 to 95%. Cc1c(-c2ccc(Cl)cc2F)c(C(=O)N(C)C2CC2)n(Cc2ccccc2)c1C(F)(F)F [SC-159, 1-Benzyl-3-(4-chloro-2-fluoro-phenyl)-N-cyclopropyl-N,4-dimethyl-5-(trifluoromethyl)-1H-pyrrole-2-carboxylic acid amide] was tested, and the inhibition at 3 µM was greater than 95%. Cc1c(-c2ccc(Cl)cc2F)c(C(=O)N(C)C2CCS(=O)(=O)CC2)n(Cc2ccccc2)c1C(F)(F)F [SC-160, 1-Benzyl-3-(4-chloro-2-fluoro-phenyl)-N-(1,1-dioxo-thian-4-yl)-N,4-dimethyl-5-(trifluoromethyl)-1H-pyrrole-2-carboxylic acid amide] was tested, and the inhibition at 3 µM was greater than 95%. In the case of Cc1c(-c2ccc(Cl)cc2F)c(C(=O)N(C)CCCS(C)(=O)=O)n(Cc2ccccc2)c1C(F)(F)F [SC-161, 1-Benzyl-3-(4-chloro-2-fluoro-phenyl)-N,4-dimethyl-N-(3-methylsulfonyl-propyl)-5-(trifluoromethyl)-1H-pyrrole-2-carboxylic acid amide], the inhibition at 3 µM is reported as greater than 95%. Cc1c(-c2ccc(Cl)cc2F)c(C(=O)N2CCCC2CS(C)(=O)=O)n(Cc2ccccc2)c1C(F)(F)F (centres unmarked) [SC-162, [1-Benzyl-3-(4-chloro-2-fluoro-phenyl)-4-methyl-5-(trifluoromethyl)-1H-pyrrol-2-yl]-[2-(methylsulfonyl-methyl)-pyrrolidin-1-yl]-methanone] was tested, and the inhibition at 3 µM was greater than 95%. Compound Cc1c(-c2ccc(Cl)cc2F)c(C(=O)NCCS(C)(=O)=O)n(Cc2ccccc2)c1C(F)(F)F [SC-163, 1-Benzyl-3-(4-chloro-2-fluoro-phenyl)-4-methyl-N-(2-methylsulfonyl-ethyl)-5-(trifluoromethyl)-1H-pyrrole-2-carboxylic acid amide] has an inhibition at 3 µM greater than 95%. Cc1c(-c2ccc(Cl)cc2F)c(C(=O)N(C)CCC2CCCO2)n(Cc2ccccc2)c1C(F)(F)F (centres unmarked) [SC-164, 1-Benzyl-3-(4-chloro-2-fluoro-phenyl)-N,4-dimethyl-N-(2-tetrahydro-furan-2-yl-ethyl)-5-(trifluoromethyl)-1H-pyrrole-2-carboxylic acid amide] was tested, and the inhibition at 3 µM was greater than 95%. With Cc1c(-c2ccc(Cl)cc2F)c(C(=O)N(C)CC2CCCO2)n(Cc2ccccc2)c1C(F)(F)F (centres unmarked) [SC-165, 1-Benzyl-3-(4-chloro-2-fluoro-phenyl)-N,4-dimethyl-N-(tetrahydro-furan-2-yl-methyl)-5-(trifluoromethyl)-1H-pyrrole-2-carboxylic acid amide] the inhibition at 3 µM was greater than 95%. For Cc1c(-c2ccc(Cl)cc2F)c(C(=O)N2CCC(CO)C2)n(Cc2ccccc2)c1C(F)(F)F (centres unmarked) [SC-166, [1-Benzyl-3-(4-chloro-2-fluoro-phenyl)-4-methyl-5-(trifluoromethyl)-1H-pyrrol-2-yl]-[3-(hydroxymethyl)-pyrrolidin-1-yl]-methanone], the inhibition at 3 µM was greater than 95%. In the case of Cc1c(-c2ccc(Cl)cc2F)c(C(=O)N(C)CC2CCOC2)n(Cc2ccccc2)c1C(F)(F)F (centres unmarked) [SC-167, 1-Benzyl-3-(4-chloro-2-fluoro-phenyl)-N,4-dimethyl-N-(tetrahydro-furan-3-yl-methyl)-5-(trifluoromethyl)-1H-pyrrole-2-carboxylic acid amide], the inhibition at 3 µM is reported as greater than 95%. Cc1c(-c2ccc(Cl)cc2F)c(C(=O)N(C)CC(C)(C)S(C)(=O)=O)n(Cc2ccccc2)c1C(F)(F)F [SC-168, 1-Benzyl-3-(4-chloro-2-fluoro-phenyl)-N,4-dimethyl-N-(2-methyl-2-methylsulfonyl-propyl)-5-(trifluoromethyl)-1H-pyrrole-2-carboxylic acid amide] showed an inhibition at 3 µM greater than 95%. Compound Cc1c(-c2ccc(Cl)cc2F)c(C(=O)N(CCS(C)(=O)=O)C(C)C)n(Cc2ccccc2)c1C(F)(F)F [SC-169, 1-Benzyl-3-(4-chloro-2-fluoro-phenyl)-N-isopropyl-4-methyl-N-(2-methylsulfonyl-ethyl)-5-(trifluoromethyl)-1H-pyrrole-2-carboxylic acid amide] has an inhibition at 3 µM of 75 to 95%. With Cc1c(-c2ccc(Cl)cc2F)c(C(=O)N2CCS(=O)(=O)C(C)(C)C2)n(Cc2ccccc2)c1C(F)(F)F [SC-170, [1-Benzyl-3-(4-chloro-2-fluoro-phenyl)-4-methyl-5-(trifluoromethyl)-1H-pyrrol-2-yl]-(2,2-dimethyl-1,1-dioxo-[1,4]thiazinan-4-yl)-methanone] the inhibition at 3 µM was greater than 95%. In the case of Cc1c(-c2ccc(Cl)cc2F)c(C(=O)N(C)C2CCS(=O)(=O)C2)n(Cc2ccccc2)c1C(F)(F)F (centres unmarked) [SC-171, 1-Benzyl-3-(4-chloro-2-fluoro-phenyl)-N-(1,1-dioxo-thiolan-3-yl)-N,4-dimethyl-5-(trifluoromethyl)-1H-pyrrole-2-carboxylic acid amide], the inhibition at 3 µM is reported as greater than 95%. Cc1c(-c2ccc(Cl)cc2F)c(C(=O)NC2CC2)n(Cc2ccccc2)c1C(F)(F)F [SC-172, 1-Benzyl-3-(4-chloro-2-fluoro-phenyl)-N-cyclopropyl-4-methyl-5-(trifluoromethyl)-1H-pyrrole-2-carboxylic acid amide] gave an inhibition at 3 µM of 75 to 95%. Work on Cc1c(-c2ccc(Cl)cc2F)c(C(=O)N2CCS(=O)(=O)CC2)n(Cc2ccccc2)c1C(F)(F)F [SC-173, [1-Benzyl-3-(4-chloro-2-fluoro-phenyl)-4-methyl-5-(trifluoromethyl)-1H-pyrrol-2-yl]-(1,1-dioxo-[1,4]thiazinan-4-yl)-methanone] yielded an inhibition at 3 µM greater than 95%.
